Key:
[1] = tested on: Acinetobacter baumannii 141HUC; assay: PDI phototoxicity towards multidrug-resistant planktonic bacteria (CFU); type: cell-based; details: 60 min incubation, 1.36 J/cm^2 at 415 nm
Experimental: (§1) Phototoxicity towards bacteria was evaluated in vitro. Assays were performed with the following bacteria: Escherichia coli ATCC 25922, Pseudomonas aeruginosa ATCC 27853 and Staphylococcus aureus ATCC 29213. Further assay were performed with clinical antibiotic-resistant strains from the Centro Hospitalar da Universidade de Coimbra, namely Staphylococcus aureus methicillin-resistant (MRSA) strain Sa1CHUC recovered from the skin of a burnt patient (resistant to all beta-lactamic antibiotics), and Acinetobacter baumannii 141HUC isolated from an exudate of a burn wound and highly resistant to all beta-lactamics (penicillins, cephalosporins, monobactams and carbapenems), quinolones and the aminoglycosides gentamicin and netilmicin. The planktonic bacteria cells were cultured in Mueller Hinton (MH) agar (Sigma Aldrich) at 37° C. overnight. Cell density was adjusted to the 0.5 McFarland standard in sterile water, which corresponds to approximately 1.5×10^8 CFU/mL. For PDI experiments cell suspensions of bacteria were incubated with various concentrations of the photosensitizers for 1 h, in the dark, at room temperature, using a 96 well plate. Then, the plate was illuminated with a blue light LED (420 nm, 4 mJ/s). Cells incubated with photosensitizers in the dark were covered with aluminum foil for the same time as the PDI groups (1 h). After illumination (or dark incubation) samples were shaken, diluted in PBS and mixed. Aliquots were taken from each well and streaked in MH agar in duplicate for CFU determination and incubated for 37° C./18-24 h in the dark. After 24 h, the colonies were counted and CFU determined. The experiments were performed in triplicate. Statistical analysis was performed with GraphPad Prism 6.
(§2) This example describes the evaluation of in vitro phototoxicity against multidrug-resistant Gram-positive and Gram-negative bacteria of the cationic ortho-5,15-di-heteroaryl porphyrin with Formula (IIa). Assays were performed with clinical resistant strains from the Centro Hospitalar da Universidade de Coimbra, namely Staphylococcus aureus methicillin-resistant (MRSA) strain Sa1CHUC collected from the skin of a burnt patient (resistant to all beta-lactamic antibiotics), and Acinetobacter baumannii 141HUC highly resistant all beta-lactamics, including carbapenems, quinolones, gentamicin and netilmicin, isolated from an exudate of a burn wound. The phototoxicity was measured according to the description in the Materials and Methods section. […] There is a dose-phototoxicity response of the test compound relative to the non-treated control. FIG. 9 illustrates the CFU reduction as a function of photosensitizer concentration for the light dose of 1.36 J/cm^2 at 415 nm.

[2] = tested on: Staphylococcus aureus methicillin-resistant (MRSA) strain Sa1CHUC; assay: as above; type: cell-based; details: 60 min incubation, 1.36 J/cm^2 at 415 nm
Experimental: as §1, §2

[3] = tested on: Staphylococcus aureus ATCC 25925 biofilms; assay: PDI phototoxicity towards biofilms (CFU); type: cell-based
Experimental: Phototoxicity towards biofilms was evaluated after biofilm growth overnight. Assays were performed with biofilms from Staphylococcus aureus ATCC 25925. Initially, bacteria cultures were diluted 1:9 in Brain Heart Infusion (BHI) (Kasvi®, Brazil). The microorganisms were centrifuged (1500 rpm, 10 min) and washed twice with phosphate-buffered saline (PBS). Aliquots of the diluted bacterial suspensions were inoculated into 24-well flat-bottom sterile polystyrene microplates and incubated for 24 h at 37° C. For PDI experiments, the plates with biofilms were incubated with 5.2 nM of the photosensitizer for 30 min in the dark at room temperature. Wells used as controls were incubated with PBS only. After that, the plates were illuminated with a specially designed light source named Biotable®. The Biotable® was composed by 24 LED lamps that deliver a uniform light fluence rate of 30 mW/cm^2 in the wavelength range between 400-650 rm. […] After this time, the colonies were counted and the colony-forming units (CFU) determined.
For the phototoxicity study, Staphylococcus aureus ATCC 25925 biofilms grown on 24-well flat-bottom sterile polystyrene microplates were incubated with 5.2 nM of the cationic ortho-5,15-di-heteroaryl porphyrin with Formula (IIa) for 30 min in the dark at room temperature. […] After this time, the colonies were counted and CFU determined. […]

[4] = Photobleaching / photodecomposition experiments; type: physicochemical
Experimental: Photobleaching experiments: Photodecomposition experiments were made dissolving the photosensitizers in water with 9% dimethylsulfoxide. A volume of 3 mL was placed in a cuvette and irradiated ensuring that all the light hits the solution. The porphyrins were irradiated using a LED light with emission at 415 nm and an effective output power of 0.27 mW. Photodecomposition quantum yield (Φpd) is defined as the ratio between the rate of disappearance of photosensitizer molecules vd and the rate of absorption of photons vp.
The intensity of its longest wavelength absorption band at 622 nm decreased by less than ΔA=0.001 after 15,000 second of illumination corresponding to an effective absorption of ca. 4 J. This places an upper limit of 0.001 to the photodecomposition quantum yield.

Solubility in water = type: physicochemical

Cn1cc[n+](C)c1C1=C2C=CC3=[N+]2[Zn@]24[n]5c(ccc51)C=C1C=CC(=[N+]12)C(c1n(C)cc[n+]1C)=c1ccc([n]14)=C3 [Formula (IIa), 5,15-bis(1,3-dimethylimidazol-2-yl)porphyrinate zinc (II) diiodide]
reduction of the number of bacterial CFU (in words) ([1]; 1 μM): dramatic decrease in CFU
log CFU at 1 μM, Acinetobacter 141Hu ([1]; planktonic): 7
reduction of the number of bacterial CFU (in words) ([2]; 1 μM): dramatic decrease in CFU
log CFU at 1 μM, S. Aureus MRSA ([2]; planktonic): 7
log CFU at 5.2 nM, S. Aureus biofilm ([3]; 5.2 nM, biofilm, 5 J/cm^2, 400-650 nm, 30 min incubation): 7
reduction of bacteria in the biofilm ([3]; ca. 5 nM, 5 J/cm^2 of white light): 7 orders of magnitude
photodecomposition quantum yield ([4]; LED 415 nm, water with 9% dimethylsulfoxide): ≤ 0.001
decrease ΔA of longest wavelength absorption band at 622 nm ([4]; after 15,000 second of illumination, effective absorption ca. 4 J): < 0.001
solubility in water (Solubility in water): soluble in water
